What was measured:
Type in all cases: cell-based
[1] = biological target: T1, platelet LPA receptor LPAR5 (Homo sapiens, UniProt Q9H1C0); test: Aggregation assay for washed human blood platelets (LPA-induced); details: reduction of maximal aggregation, 5 min preincubation at 37° C.
T1 construct: the cellular pellet, consisting of human blood platelets was then dissolved in 10 ml buffer T; endogenous in cells; host or cells: washed human blood platelets from healthy volunteers
Description: A) Aggregation Assay for Washed Human Blood Platelets (Thrombocytes)
Whole blood was collected from healthy volunteers using 3×20 ml syringes containing each 1/10 volume of buffered citrate. The anticoagulated whole blood was transferred into 50 ml polypropylene conical tubes (30 ml per tube). The tubes were centrifuged for 10 minutes at 150×g at room temperature without using the centrifuge brake. This procedure results in a lower phase of cellular components and a supernatant (upper phase) of platelet rich plasma (PRP). The PRP phase was collected from each tube and pooled for each donor. […] The platelet concentration was determined using a ABX Micros 60 counter. […] Platelet concentration in this solution was determined and buffer T was added to obtain a final concentration of 3.5×10^5 platelets per ml.
After 10 minutes at room temperature, 1 μl PGI2 per ml platelet solution was added and distributed into new 10 ml tubes. […] Aggregation was measured over 6 minutes at 37° C. with 1200 rpm (revolutions per minute) stirring. Results of the assay are expressed as % activation, and are calculated using maximum aggregation (Tmax) or area under curve (AUC) of the absorbance over 6 minutes. The inhibitory effect (IC50) of the test compounds was determined as the reduction of the maximal aggregation. […]

LPA receptor LPAR5 [2] = biological target: T2, LPA receptor LPAR5 (Mus musculus, UniProt Q149R9); test: FLIPR assay, intracellular Ca2+ release in murine microglia cell line BV-2; details: murine microglia cell line BV-2, LPA-stimulated Ca2+ release, compound added 10 minutes prior LPA
T2 construct: two cell lines were used with high LPAR5 expression, the human mast cell line HMC-1 and the murine microglia cell line BV-2; endogenous in cells; host or cells: BV-2 murine microglia cell line
Description: (§1) B) Use of the Fluorometric Imaging Plate Reader (FLIPR) Assay for the Determination of Intracellular Ca^2+ Release in Human Mast Cell Line HMC-1 and the Murine Microglia Cell Line BV-2
(§2) The ability of the compounds of the formula I to inhibit or bind the LPA receptor LPAR5 can be assessed by determining the intracellular Ca^2+ release in human or animal cells. For the analysis of activating potential of LPA and the inhibitory effects of compounds of the formula I two cell lines were used with high LPAR5 expression, the human mast cell line HMC-1 and the murine microglia cell line BV-2 (FIGS. 1 and 2). For the FLIPR assay using human mast cells in a 96-well-format, HMC-1 suspension cells from flask culture were harvested, resuspended and counted. 14×10^6 HMC-1 cells were transferred into a new 50 ml tube, centrifuged for 3 minutes at 540×g. The resulting cell pellet at the bottom of the tube was resuspended with 15 ml loading buffer (loading buffer contained HBSS buffer (pH 7.4), 0.1% BSA (bovine serum albumin), 2 μM FLUO-4 dye; HBSS buffer (pH 7.4) contained 1×HBSS, 20 mM HEPES, 0.01% Pluronic F-127, 2.5 mM Probenicid).
Cells in loading buffer were incubated for 45-60 minutes at 37° C. […] Results of the assay are expressed as % activation, and are calculated using maximum peak of activation (Amax). […]

LPA receptor LPAR5 [3] = biological target: T3, LPA receptor LPAR5 (Homo sapiens, UniProt Q9H1C0); test: FLIPR assay, intracellular Ca2+ release in human mast cell line HMC-1; details: human mast cell line HMC-1, LPA-stimulated Ca2+ release, compound added 10 minutes prior LPA
T3 construct: two cell lines were used with high LPAR5 expression, the human mast cell line HMC-1; endogenous in cells; host or cells: HMC-1 human mast cell line
Description: as §1, §2
Cells in loading buffer were incubated for 45-60 minutes at 37° C. After incubation cells were centrifuged for 3 minutes at 540×g and resuspended with 21 ml of HBSS buffer (pH 7.4). Each well of a poly-D-lysine coated 96-well-plate was filled with 150 μl cell solution, an equivalent of 100 000 cells/well. The 96-well-plate was centifuged for 2 minutes at 100×g (without brake) prior a recovery time of 30 minutes at 37° C. After this procedure cells were stimulated with LPA (in HBSS pH 7.4 and 0.1% BSA) to determine the EC50 of LPA in HMC-1 cells. For the determination of the inhibitory effect of compounds of the formula I, test compounds were added to the cells in the 96-well-plate 10 minutes prior the addition of LPA. Results of the assay are expressed as % activation, and are calculated using maximum peak of activation (Amax). […]

T3 sequence (Q9H1C0 whole entry): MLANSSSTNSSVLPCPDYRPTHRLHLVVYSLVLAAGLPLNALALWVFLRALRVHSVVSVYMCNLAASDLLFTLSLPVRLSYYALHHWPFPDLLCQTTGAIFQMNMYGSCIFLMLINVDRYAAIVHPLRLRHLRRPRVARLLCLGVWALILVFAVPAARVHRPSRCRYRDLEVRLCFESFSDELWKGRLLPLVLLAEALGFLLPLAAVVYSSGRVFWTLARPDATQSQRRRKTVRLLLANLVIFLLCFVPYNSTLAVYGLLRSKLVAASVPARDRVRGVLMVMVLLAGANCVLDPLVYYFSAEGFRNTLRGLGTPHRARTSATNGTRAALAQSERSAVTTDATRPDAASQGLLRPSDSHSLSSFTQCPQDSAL
T2 sequence (Q149R9 whole entry): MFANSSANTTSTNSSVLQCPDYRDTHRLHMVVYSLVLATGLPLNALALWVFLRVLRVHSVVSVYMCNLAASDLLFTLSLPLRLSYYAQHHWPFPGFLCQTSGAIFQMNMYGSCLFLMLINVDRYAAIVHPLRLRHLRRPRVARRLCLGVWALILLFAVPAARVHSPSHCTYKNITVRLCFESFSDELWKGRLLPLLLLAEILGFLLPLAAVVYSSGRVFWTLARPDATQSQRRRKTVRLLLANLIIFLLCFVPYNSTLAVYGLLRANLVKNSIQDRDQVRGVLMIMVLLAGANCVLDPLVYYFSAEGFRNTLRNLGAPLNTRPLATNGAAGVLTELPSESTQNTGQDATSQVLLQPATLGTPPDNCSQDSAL
T1 sequence (Q9H1C0 whole entry): as the sequence (Q9H1C0 whole entry) above

IC50 [1] [µM] | IC50 (LPA receptor LPAR5 [2]) [µM] | IC50 (LPA receptor LPAR5 [3]) [µM] | Compound
3.6 | 3.2 | 0.13 | Cc1nc(-c2ccc(Cl)cc2)c(-c2ccc(Cl)cc2Cl)cc1COC(C)(C)C(=O)NCc1ccc(C(=O)O)cc1 [Example 14, 4-({2-[6-(4-Chloro-phenyl)-5-(2,4-dichloro-phenyl)-2-methyl-pyridin-3-ylmethoxy]-2-methyl-propionylamino}-methyl)-benzoic acid]
– | – | 3.7 | Cc1nc(-c2ccc(C(F)(F)F)cc2)c(-c2ccc(Cl)cc2Cl)cc1COC(C)C(=O)Nc1ccc(C(=O)O)cc1 (centres unmarked) [Example 1, 4-{2-[5-(2,4-Dichloro-phenyl)-2-methyl-6-(4-trifluoromethyl-phenyl)-pyridin-3-ylmethoxy]-propionylamino}-benzoic acid]
– | – | 1.8 | Cc1nc(-c2ccc(Cl)cc2)c(-c2ccc(Cl)cc2Cl)cc1COC(C)(C)C(=O)NCCCC(=O)O [Example 15, 4-{2-[6-(4-Chloro-phenyl)-5-(2,4-dichloro-phenyl)-2-methyl-pyridin-3-ylmethoxy]-2-methyl-propionylamino}-butyric acid]

From patent US9346757B2, “Pyridine derivatives and their use in the treatment of conditions associated with pathological thrombus formation” (SANOFI, priority 2012, dated 2016)
